Results: PubChem BioAssay (NCI)
Where “and” joins values, the source holds several entries; their conditions need not be identical. Equal entries are not always repeated.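 Step 1: Grow cells in 96-well plates. Step 2: Expose to compound for 48 hours at 5 concentrations. Step 3: Interpolate endpoints linearly; if unreached, use highest concentration. At the GI50, growth is halved. At the TGI there is no net growth.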

Tests used:
Test in all cases: NCI anticancer screen, dose series, 48 h
DU-145 prostate = system: DU-145 prostate
UO-31 renal = system: UO-31 renal
HCT-15 colon = system: HCT-15 colon
SK-MEL-5 melanoma = system: SK-MEL-5 melanoma
OVCAR-8 ovarian = system: OVCAR-8 ovarian
SNB-19 CNS = system: SNB-19 CNS
UACC-257 melanoma = system: UACC-257 melanoma
HOP-92 NSCLC = system: HOP-92 NSCLC
UACC-62 melanoma = system: UACC-62 melanoma
KM12 colon = system: KM12 colon

SMILES	GI50 (DU-145 prostate)	TGI (DU-145 prostate)	GI50 (UO-31 renal)	TGI (UO-31 renal)	GI50 (HCT-15 colon)	TGI (HCT-15 colon)	GI50 (SK-MEL-5 melanoma)	TGI (SK-MEL-5 melanoma)	GI50 (OVCAR-8 ovarian)	TGI (OVCAR-8 ovarian)	GI50 (SNB-19 CNS)	TGI (SNB-19 CNS)	GI50 (UACC-257 melanoma)	TGI (UACC-257 melanoma)	GI50 (HOP-92 NSCLC)	TGI (HOP-92 NSCLC)	TGI (UACC-62 melanoma)	GI50 (KM12 colon)	TGI (KM12 colon)	GI50 (UACC-62 melanoma)
CCN(Cc1c(F)cccc1C(F)(F)F)c1ccc(CO)c(Cl)c1	15.9 µM	29.8 µM	14.6 µM	28.3 µM	12.8 µM	27.1 µM	7.81 µM	23.2 µM	14.6 µM	31.3 µM	14.9 µM	29.1 µM	< 0.0407 µM	0.187 µM	0.856 µM	16 µM	12.6 µM	14.1 µM	29.4 µM	–
Cc1cc(S(=O)(=O)Nc2nc3ccccc3s2)c(SCc2ccccc2)cc1Cl	15.5 µM	36.9 µM	19.4 µM	45.9 µM	15.2 µM	30.8 µM	12.5 µM	25 µM	17 µM	44.9 µM	28.2 µM	> 100 µM	18.3 µM	45.9 µM	11.8 µM	43.6 µM	27.9 µM	18.8 µM	61.9 µM	10.8 µM
CNC(=O)c1cc(Oc2ccc(NC(=O)Nc3ccc(Cl)c(C(F)(F)F)c3)cc2)ccn1	4.55 µM and 3.04 µM and 3.11 µM	> 10 µM and 9.33 µM and 10.7 µM	3.08 µM and 3.03 µM and 2.57 µM	> 10 µM and 8.18 µM and 6.2 µM	2.76 µM and 3.18 µM and 2.65 µM	> 10 µM and 12.3 µM and 9.84 µM	1.43 µM and 1.61 µM and 1.57 µM	3.14 µM and 2.97 µM and 3.25 µM	3 µM and 2.91 µM and 3.03 µM	> 10 µM and 9.06 µM and 20.2 µM	4.75 µM and 4.38 µM and 3.47 µM	> 10 µM and 17.7 µM and 11.8 µM	2.14 µM and 1.99 µM and 2.2 µM	6.41 µM and 5.16 µM and 6.15 µM	1.65 µM and 1.43 µM and 1.75 µM	5.62 µM and 5.12 µM and 6.38 µM	8.52 µM and 5.23 µM and 4.49 µM	2.42 µM and 1.86 µM and 1.8 µM	> 10 µM and 8.07 µM and 6.97 µM	2.4 µM and 1.96 µM and 1.7 µM
CN1CCN(CCCn2c3c(sc4ncccc43)c(=O)n3nnc(-c4ccccc4)c23)CC1	1.67 µM	3.24 µM	0.802 µM	2.42 µM	1.87 µM	4.3 µM	1.65 µM	3.05 µM	1.88 µM	4.31 µM	2.48 µM	5.82 µM	5.81 µM	10.5 µM	9.5 µM	28.4 µM	33.8 µM	1.55 µM	3.17 µM	17.6 µM
Nc1cc2c3ccccc3ccc2c2ccccc12	> 87.4 µM	> 100 µM	> 100 µM	> 100 µM	3.92 µM	> 100 µM	16.7 µM	> 100 µM	> 44.6 µM	> 100 µM	> 100 µM	> 100 µM	> 100 µM	> 100 µM	> 100 µM	> 100 µM	> 100 µM	> 100 µM	> 100 µM	> 100 µM
CC1(/C=C/c2ccc(-c3ccccc3)cc2)CCn2cnc3ncnc(c32)N1O (centres undefined)	0.53 µM	> 56.7 µM	0.162 µM	1.2 µM	0.146 µM	33.5 µM	0.324 µM	2.75 µM	0.419 µM	> 55.1 µM	0.526 µM	> 72.6 µM	0.445 µM	25.3 µM	3.72 µM	65.6 µM	2.27 µM	0.415 µM	23.1 µM	0.356 µM
C#Cc1cccc(NC(=O)C2CCCCN2C(=O)CCl)c1 (centres undefined)	24.4 µM	> 82.5 µM	13.6 µM	25.7 µM	9.61 µM	23.4 µM	9.54 µM	41.2 µM	20.3 µM	> 82.5 µM	> 82.5 µM	> 82.5 µM	26.2 µM	> 82.5 µM	12.5 µM	43.3 µM	> 82.5 µM	37.1 µM	> 82.5 µM	18.9 µM
C=C1[C@H](O)C[C@@H](C(C)C(O)CC=C(C)C)[C@@H](O)[C@@H]2C(C)=CC[C@@H]12 (some centres undefined)	> 100 µM	> 100 µM	> 100 µM	> 100 µM	> 100 µM	> 100 µM	> 100 µM	> 100 µM	> 100 µM	> 100 µM	> 100 µM	> 100 µM	> 100 µM	> 100 µM	> 100 µM	> 100 µM	> 100 µM	> 100 µM	> 100 µM	94.8 µM
COc1cc2cc(C(=O)Nc3ccccc3)c(N)nc2cc1OC	80.3 µM	> 100 µM	25.7 µM	> 100 µM	31.3 µM	> 100 µM	22.8 µM	88.8 µM	33.5 µM	> 100 µM	> 100 µM	> 100 µM	39.4 µM	> 100 µM	8.29 µM	90.1 µM	> 100 µM	46 µM	> 100 µM	28.6 µM
O=C(COc1ccc(Cl)cc1Cl)NNc1ccc([N+](=O)[O-])cc1	53.3 µM	> 100 µM	> 100 µM	> 100 µM	> 100 µM	> 100 µM	> 100 µM	> 100 µM	98.9 µM	> 100 µM	25 µM	95.6 µM	99.6 µM	> 100 µM	12.1 µM	31.7 µM	> 100 µM	> 100 µM	> 100 µM	27.7 µM
CN(N=O)N1C(=O)SCC(c2ccccc2)(c2ccccc2)C1=O	–	> 100 µM	–	> 100 µM	–	> 100 µM	–	> 100 µM	–	60.2 µM	–	> 100 µM	–	> 100 µM	–	> 100 µM	> 100 µM	–	> 100 µM	–
S=C1NC(c2ccccc2)NC(c2ccccc2)S1 (centres undefined)	–	> 100 µM	–	> 100 µM	–	> 100 µM	–	> 100 µM	–	> 100 µM	–	> 100 µM	–	> 100 µM	–	> 100 µM	> 100 µM	–	> 100 µM	–
O=C(O)[C@@H](Cc1ccccc1)NS(=O)(=O)c1ccc(-c2ccccc2)cc1	> 100 µM	> 100 µM	24.9 µM	59.4 µM	> 100 µM	> 100 µM	> 100 µM	> 100 µM	> 100 µM	> 100 µM	> 100 µM	> 100 µM	> 100 µM	> 100 µM	24.9 µM	> 100 µM	> 100 µM	> 100 µM	> 100 µM	> 100 µM
